Assay results published in US20260174673A1, “COMPOSITIONS AND METHODS USING A COMBINATION OF OLEUROPEIN AND TAURINE” (SOCIÉTÉ DES PRODUITS NESTLÉ S.A., priority 2022, published 2026).

Test system: myotubes differentiated from C2C12 cells
Assay: Mitochondrial calcium rise in C2C12 myotubes (mitochondrial aequorin luminescence)
Assay type: cell-based
Conditions: C2C12-derived myotubes, taurine alone at the indicated concentrations (μM) vs. control, compounds added 2 hours before measurement, 28 experiments, P<0.05 one-way ANOVA
Protocol: To test the effect of oleuropein (or oleuropein aglycone), taurine and their combination in living cells, the inventors measured mitochondrial calcium rise in myotubes differentiated from C2C12 cells. C2C12 cells were purchased from ATCC. C2C12 cells were seeded in 96-well plates at a density of 8000 cells per well in DMEM high glucose (Gibco)+10% fetal calf serum. Myotubes were differentiated by growing the C2C12 cells in DMEM containing 2% horse serum, for 4 days. Mitochondrial calcium measurements were carried out using myotubes infected with the adenovirus (from Sirion biotech) expressing the mitochondrially targeted calcium sensor mitochondrial mutated aequorin (Montero et al., 2002 Biochem J. 2002 Jul. 15; 365(Pt 2): 451-9). For aequorin reconstitution, 24 hours after infection, myotubes were incubated for 2 h at room temperature (22±°C.) in standard medium (145 mM NaCl, 5 mM KCl, 1 mM MgCl2, 1 mM CaCl2, 10 mM glucose and 10 mM Hepes, pH 7.4) with 1 μM wild-type coelenterazine. […] Luminescence was measured at the FLIPR Tetra Aequorin (Molecular Devices). Calibration of the luminescence data into calcium concentration was carried out using an algorithm as described previously (Montero et al, 2002, Biochem J. 2002 Jul. 15; 365(Pt 2): 451-9)). Custom module analysis based on Excel (Microsoft) and GhaphPad Prism 7.02 (GraphPad) software was used for quantification.

`NCCS(=O)(=O)O` [Taurine, 2-aminoethanesulfonic acid] was tested, and the “integrated mitochondrial calcium rise, evoked by 5 mM caffeine” value was “enhances mitochondrial Ca2+ elevation” and the “integrated mitochondrial calcium rise, evoked by 5 mM caffeine” value (listed as taurine) was “enhances mitochondrial function”.
